Measured values taken from patent US11331327B2, “Antibacterial use of halogenated salicylanilides” (UNION therapeutics A/S, priority 2014, dated 2022).
In brackets after ≈: the same amount, converted by molar mass.

Tested on: S. aureus clinical isolates and S. aureus ATCC 29213
Experiment: MIC assay according to CLSI criteria, Example 2, S. aureus strains
Assay type: cell-based, Staphylococcus aureus
Conditions: Staphylococcus aureus
Outline: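 Wells received roughly 5×10^5 S. aureus cells taken in exponential growth, in cation-adjusted MH broth. Plates held aerobically at 37° C for 18 hours.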

## C=C[C@]1(C)C[C@@H](OC(=O)CS[C@@H]2C[C@H]3CC[C@@H](C2)N3C)[C@]2(C)[C@H](C)CC[C@]3(CCC(=O)[C@H]32)[C@@H](C)[C@@H]1O [Retapamulin]
ATCC29213, strain 9-1862936
  MIC: 0.03 µg/mL (≈ 0.0579 µM)
ATCC29213, strain 9-2625962
  MIC: 0.03 µg/mL (≈ 0.0579 µM)
ATCC29213, strain 9-2642158
  MIC: 0.06 µg/mL (≈ 0.116 µM)
ATCC29213, strain 9-2955245
  MIC: 0.06 µg/mL (≈ 0.116 µM)
ATCC29213, strain 9-26422166
  MIC: 0.03 µg/mL (≈ 0.0579 µM)
ATCC29213, strain 000040C
  MIC: 0.03 µg/mL (≈ 0.0579 µM)
ATCC29213, strain 000041C
  MIC: 0.03 µg/mL (≈ 0.0579 µM)
ATCC29213, strain 000274T
  MIC: 0.06 µg/mL (≈ 0.116 µM)
ATCC29213, strain 114660U
  MIC: 0.06 µg/mL (≈ 0.116 µM)
ATCC29213, strain 115015T
  MIC: 0.06 µg/mL (≈ 0.116 µM)
ATCC29213, strain 115242C
  MIC: 0.03 µg/mL (≈ 0.0579 µM)
ATCC29213, strain 115263C
  MIC: 0.03 µg/mL (≈ 0.0579 µM)
ATCC29213, strain 115268C
  MIC: 0.03 µg/mL (≈ 0.0579 µM)
ATCC29213, strain 115273C
  MIC: 0.03 µg/mL (≈ 0.0579 µM)
ATCC29213, strain 115295C
  MIC: 0.03 µg/mL (≈ 0.0579 µM)
ATCC29213, strain 115303C
  MIC: 0.03 µg/mL (≈ 0.0579 µM)
ATCC29213, strain 115370U
  MIC: 0.06 µg/mL (≈ 0.116 µM)
ATCC29213, strain 115427C
  MIC: 0.03 µg/mL (≈ 0.0579 µM)
ATCC29213, strain 115445C
  MIC: 0.03 µg/mL (≈ 0.0579 µM)
ATCC29213, strain 115561C
  MIC: 0.03 µg/mL (≈ 0.0579 µM)
ATCC29213, strain 115584D
  MIC: 0.06 µg/mL (≈ 0.116 µM)
ATCC29213, strain 115628T
  MIC: 0.03 µg/mL (≈ 0.0579 µM)
ATCC29213, strain 115690C
  MIC: 0.25 µg/mL (≈ 0.483 µM)
ATCC29213, strain 115691T
  MIC: 0.03 µg/mL (≈ 0.0579 µM)
ATCC29213, strain 115740E
  MIC: 0.06 µg/mL (≈ 0.116 µM)
ATCC29213, strain 115810E
  MIC: 0.06 µg/mL (≈ 0.116 µM)
ATCC29213, strain 115903T
  MIC: 0.03 µg/mL (≈ 0.0579 µM)
ATCC29213, strain 116122T
  MIC: 0.03 µg/mL (≈ 0.0579 µM)
ATCC29213, strain ATCC 29213
  MIC: 0.03 µg/mL (≈ 0.0579 µM)
ATCC29213, strain E5-1029252
  MIC: 0.03 µg/mL (≈ 0.0579 µM)
ATCC29213, strain E5-1029558
  MIC: 0.03 µg/mL (≈ 0.0579 µM)
ATCC29213, strain E5-1030440
  MIC: 0.06 µg/mL (≈ 0.116 µM)
ATCC29213, strain E5-1030469
  MIC: 0.03 µg/mL (≈ 0.0579 µM)
ATCC29213, strain E5-1030472
  MIC: 0.06 µg/mL (≈ 0.116 µM)
ATCC29213, strain E5-1030482
  MIC: 0.02 µg/mL (≈ 0.0386 µM)
ATCC29213, strain E5-1033076 (first line, r202)
  MIC: 0.03 µg/mL (≈ 0.0579 µM)
ATCC29213, strain E5-1033076 (second line, r203)
  MIC: 0.03 µg/mL (≈ 0.0579 µM)
ATCC29213, strain E5-1033088
  MIC: 0.03 µg/mL (≈ 0.0579 µM)
ATCC29213, strain E5-1033091
  MIC: 0.02 µg/mL (≈ 0.0386 µM)
ATCC29213, strain E5-1035277
  MIC: 0.03 µg/mL (≈ 0.0579 µM)
ATCC29213, strain E5-1035284
  MIC: 0.03 µg/mL (≈ 0.0579 µM)
ATCC29213, strain E5-1035775
  MIC: 0.06 µg/mL (≈ 0.116 µM)
ATCC29213, strain E5-1035779
  MIC: 0.03 µg/mL (≈ 0.0579 µM)
ATCC29213, strain E5-1037958
  MIC: 0.06 µg/mL (≈ 0.116 µM)
ATCC29213, strain E5-1037971
  MIC: 0.03 µg/mL (≈ 0.0579 µM)
ATCC29213, strain E5-1038279
  MIC: 0.03 µg/mL (≈ 0.0579 µM)
ATCC29213, strain E5-1038286
  MIC: 0.06 µg/mL (≈ 0.116 µM)
ATCC29213, strain E5-1038294
  MIC: 0.03 µg/mL (≈ 0.0579 µM)
ATCC29213, strain E5-1039684
  MIC: 0.06 µg/mL (≈ 0.116 µM)
ATCC29213, strain E5-1039697
  MIC: 0.06 µg/mL (≈ 0.116 µM)
ATCC29213, strain E5-1041977
  MIC: 0.03 µg/mL (≈ 0.0579 µM)
ATCC29213, strain E5-1041979
  MIC: 0.03 µg/mL (≈ 0.0579 µM)
ATCC29213, strain E5-1041980
  MIC: 0.03 µg/mL (≈ 0.0579 µM)
ATCC29213, strain E5-1041987
  MIC: 0.03 µg/mL (≈ 0.0579 µM)
ATCC29213, strain E5-1043184
  MIC: 0.03 µg/mL (≈ 0.0579 µM)
ATCC29213, strain E5-1043668
  MIC: 0.06 µg/mL (≈ 0.116 µM)
ATCC29213, strain E5-1045179
  MIC: 0.06 µg/mL (≈ 0.116 µM)
ATCC29213, strain E5-1046019
  MIC: 0.03 µg/mL (≈ 0.0579 µM)
ATCC29213, strain E5-1046020
  MIC: 0.06 µg/mL (≈ 0.116 µM)
ATCC29213, strain E5-1046039
  MIC: 0.06 µg/mL (≈ 0.116 µM)
ATCC29213, strain E5-1046070
  MIC: 0.03 µg/mL (≈ 0.0579 µM)
ATCC29213, strain E5-1046074
  MIC: 0.06 µg/mL (≈ 0.116 µM)
ATCC29213, strain E5-1046085
  MIC: 0.06 µg/mL (≈ 0.116 µM)
ATCC29213, strain E5-1046096
  MIC: 0.06 µg/mL (≈ 0.116 µM)
ATCC29213, strain E5-1046296
  MIC: 0.03 µg/mL (≈ 0.0579 µM)
ATCC29213, strain E5-1046297
  MIC: 0.06 µg/mL (≈ 0.116 µM)
ATCC29213, strain E5-1046298
  MIC: 0.03 µg/mL (≈ 0.0579 µM)
ATCC29213, strain E5-1046723
  MIC: 0.06 µg/mL (≈ 0.116 µM)
ATCC29213, strain E5-1047585
  MIC: 0.03 µg/mL (≈ 0.0579 µM)
ATCC29213, strain E5-1047606
  MIC: 0.03 µg/mL (≈ 0.0579 µM)
ATCC29213, strain E5-1047924
  MIC: 0.03 µg/mL (≈ 0.0579 µM)
ATCC29213, strain E5-1048204
  MIC: 0.03 µg/mL (≈ 0.0579 µM)
ATCC29213, strain E5-1048428
  MIC: 0.06 µg/mL (≈ 0.116 µM)
ATCC29213, strain E5-1048654
  MIC: 0.06 µg/mL (≈ 0.116 µM)
ATCC29213, strain E5-1048670
  MIC: 0.06 µg/mL (≈ 0.116 µM)
ATCC29213, strain EEFIC 01
  MIC: 0.03 µg/mL (≈ 0.0579 µM)
ATCC29213, strain EEFIC 02
  MIC: 0.03 µg/mL (≈ 0.0579 µM)
ATCC29213, strain K000772
  MIC: 0.06 µg/mL (≈ 0.116 µM)
ATCC29213, strain K000796
  MIC: 0.03 µg/mL (≈ 0.0579 µM)
ATCC29213, strain K000863
  MIC: 0.03 µg/mL (≈ 0.0579 µM)
ATCC29213, strain K000864
  MIC: 0.03 µg/mL (≈ 0.0579 µM)
ATCC29213, strain K000866
  MIC: 0.03 µg/mL (≈ 0.0579 µM)
ATCC29213, strain K115498
  MIC: 0.03 µg/mL (≈ 0.0579 µM)
ATCC29213, strain K115688
  MIC: 0.03 µg/mL (≈ 0.0579 µM)
ATCC29213, strain K115689
  MIC: 0.03 µg/mL (≈ 0.0579 µM)
ATCC29213, strain R000019
  MIC: 0.06 µg/mL (≈ 0.116 µM)
ATCC29213, strain R000020
  MIC: 0.03 µg/mL (≈ 0.0579 µM)
ATCC29213, strain R000024
  MIC: 0.06 µg/mL (≈ 0.116 µM)
ATCC29213, strain U115579
  MIC: 0.06 µg/mL (≈ 0.116 µM)
ATCC 29213 / MRSA, strain MRSA 01
  MIC: 0.06 µg/mL (≈ 0.116 µM)
ATCC 29213 / MRSA, strain MRSA 02
  MIC: 0.06 µg/mL (≈ 0.116 µM)
ATCC 29213 / MRSA, strain MRSA 03
  MIC: 0.03 µg/mL (≈ 0.0579 µM)
ATCC 29213 / MRSA, strain MRSA 04
  MIC: 0.06 µg/mL (≈ 0.116 µM)
ATCC 29213 / MRSA, strain MRSA 05
  MIC: 0.03 µg/mL (≈ 0.0579 µM)
ATCC 29213 / MRSA, strain MRSA 06
  MIC: 0.03 µg/mL (≈ 0.0579 µM)
ATCC 29213 / MRSA, strain MRSA 07
  MIC: 0.06 µg/mL (≈ 0.116 µM)
ATCC 29213 / MRSA, strain MRSA 08
  MIC: 0.03 µg/mL (≈ 0.0579 µM)
ATCC 29213 / MRSA, strain MRSA 09
  MIC: 0.06 µg/mL (≈ 0.116 µM)
ATCC 29213 / MRSA, strain MRSA 10
  MIC: 0.06 µg/mL (≈ 0.116 µM)
ATCC 29213 / MRSA, strain MRSA 11
  MIC: 0.06 µg/mL (≈ 0.116 µM)
ATCC 29213 / MRSA, strain MRSA 12
  MIC: 0.03 µg/mL (≈ 0.0579 µM)
ATCC 29213 / MRSA, strain MRSA 13
  MIC: 0.06 µg/mL (≈ 0.116 µM)
ATCC 29213 / MRSA, strain MRSA 14
  MIC: 0.03 µg/mL (≈ 0.0579 µM)
